Experimental findings from patent US8598344B2, “CDKI pathway inhibitors and uses thereof” (Senex Biotechnology, priority 2009, dated 2013) are described below.

For orientation: EC50 means the concentration needed to bring the measured effect to its halfway point.

The target of one assay is T1, ROCK2 (Homo sapiens, UniProt O75116).
T1 construct: purchased KinomeScan, a division of Ambit Biosciences
The assay can be described thus: KinomeScan competition binding assay. The following applies: 10 μM compound. On the procedure:
(§1) The KINOMEscan assay has been described in detail in Fabian et al., Nat. Biotechnol. 23: 329 (2005) and Karaman et al., Nat. Biotechnol. 26: 127 (2008).
(§2) The KinomeScan assay is based on a competition binding assay that quantitatively measures the ability of a compound to compete with an immobilized, ATP site directed ligand. The assay is performed by combining three components: DNA-tagged kinase; immobilized ligand; and a test compound. The ability of the test compound to compete with the immobilized ligand is measured via quantitative PCR of the DNA tag.

For another assay, the target named is T2, MET (Homo sapiens, UniProt P08581).
T2 construct: purchased KinomeScan, a division of Ambit Biosciences
The assay can be described thus: KinomeScan competition binding assay. The following applies: 10 μM compound. As to the method:
as §1, §2

A further assay addresses T3, PRKG2 (Homo sapiens, UniProt Q13237).
T3 construct: purchased KinomeScan, a division of Ambit Biosciences
As to the kind of experiment: KinomeScan competition binding assay. The conditions noted are these: 10 μM compound. As to the method: as §1, §2

For another assay, the target named is T4, RIOK2 (Homo sapiens, UniProt Q9BVS4).
T4 construct: purchased KinomeScan, a division of Ambit Biosciences
As to the kind of experiment: KinomeScan competition binding assay. The following applies: 10 μM compound. As to the method: as §1, §2

In a further assay the target is T5, ALK (Homo sapiens, UniProt Q9UM73).
T5 construct: purchased KinomeScan, a division of Ambit Biosciences
The assay can be described thus: KinomeScan competition binding assay. The following applies: 10 μM compound. On the procedure:
as §1, §2

A further assay concerns the target T6, ROCK1 (Homo sapiens, UniProt Q13464).
T6 construct: purchased KinomeScan, a division of Ambit Biosciences
The assay can be described thus: KinomeScan competition binding assay. The following applies: 10 μM compound. On the procedure:
as §1, §2

Another assay has as its target T7, PKACa (Homo sapiens, UniProt P17612).
T7 construct: purchased KinomeScan, a division of Ambit Biosciences
The assay can be described thus: KinomeScan competition binding assay. The conditions noted are these: 10 μM compound. On the procedure:
as §1, §2

A further assay deals with T8, LTK (Homo sapiens, UniProt P29376).
T8 construct: purchased KinomeScan, a division of Ambit Biosciences
As to the kind of experiment: KinomeScan competition binding assay. The following applies: 10 μM compound. As to the method: as §1, §2

The next assay has as its target T9, ROS1 (Homo sapiens, UniProt P08922).
T9 construct: purchased KinomeScan, a division of Ambit Biosciences
As to the kind of experiment: KinomeScan competition binding assay. The following applies: 10 μM compound. On the procedure: as §1, §2

The target in a further assay is T10, PKACb (Homo sapiens, UniProt P22694).
T10 construct: purchased KinomeScan, a division of Ambit Biosciences
As to the kind of experiment: KinomeScan competition binding assay. The following applies: 10 μM compound. As to the method: as §1, §2

In the next assay the target is T11, PIM2 (Homo sapiens, UniProt Q9P1W9).
T11 construct: purchased KinomeScan, a division of Ambit Biosciences
The assay can be described thus: KinomeScan competition binding assay. The conditions noted are these: 10 μM compound. On the procedure: as §1, §2

A further assay deals with T12, JNK1 (Homo sapiens, UniProt P45983).
T12 construct: purchased KinomeScan, a division of Ambit Biosciences
The assay can be described thus: KinomeScan competition binding assay. The conditions noted are these: 10 μM compound. On the procedure: as §1, §2

For the next assay, the system named is HIV-1. The following applies: read-out: EC50, decrease in fraction of HIV-infected (p24-positive) cells; day 5.
Assay [1] has as its system irradiated, senescent WI38 fibroblasts. The assay can be described thus: Paracrine antiapoptotic activity of irradiated, senescent WI38 fibroblasts (survival of C8 cells in low serum). It is filed as cell-based. The following applies: C8 cell luciferase, 0.5% serum. An excerpt:
As discussed by Roninson (Cancer Lett. 179, 1-14, 2002), all the treatments known to induce the production of tumor-promoting secreted factors by cancer-associated stromal fibroblasts activate the CDKI pathway, including exposure to ionizing radiation and the induction of senescence. Since this pathway is the target of compounds according to the invention, such compounds may be the first agents to target tumor-supporting activities of cancer-associated fibroblasts. Some of the fibroblast-activating treatments include exposure to ionizing radiation and the induction of senescence through various means (Krtolica et al., Proc. Natl. Acad. Sci. USA 98, 12072, 2001). We have adopted a 96-well assay for anti-apoptotic activity that we have previously used with p21-expressing fibrosarcoma cells (Chang et al., Proc. Natl. Acad. Sci. USA 97, 4291-4296, 2000), to measure a tumor-promoting activity of normal proliferating fibroblasts and fibroblasts exposed to ionizing radiation and consequently developing the senescent phenotype. In this assay, WI38 fibroblasts are irradiated with 10 Gy using an MDS Nordion Gammacell 40 irradiator, or left unirradiated. […] On day 7, cells are lysed and the amount of luciferase activity associated with C8 cells is determined. […]

In a further assay the target is T13, PIK3CG (Homo sapiens, UniProt P48736).
T13 construct: purchased KinomeScan, a division of Ambit Biosciences
As to the kind of experiment: KinomeScan competition binding assay. The conditions noted are these: 10 μM compound. In a few lines:
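Binding, not catalytic activity, is measured here. Compound displacement of DNA-tagged kinase from an immobilized ligand directed at the ATP site is read by quantitative PCR and given as POC or Kd.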

The next assay has as its target CDK7 (Homo sapiens, UniProt P50613). As to the kind of experiment: KinomeScan competition binding assay. The following applies: 10 μM compound. Further details: purchased KinomeScan, a division of Ambit Biosciences. An excerpt: This similarity led us to test SNX14 for the ability to inhibit 285 kinases, using the services of KinaseProfiler of Millipore Corporation (285 kinases). […] The KINOMEscan assay has been described in detail in Fabian et al., Nat. Biotechnol. 23: 329 (2005) and Karaman et al., Nat. Biotechnol. 26: 127 (2008).
The KinomeScan assay is based on a competition binding assay that quantitatively measures the ability of a compound to compete with an immobilized, ATP site directed ligand. The assay is performed by combining three components: DNA-tagged kinase; immobilized ligand; and a test compound. The ability of the test compound to compete with the immobilized ligand is measured via quantitative PCR of the DNA tag. […] The CDKs tested by Millipore for inhibition with SNX14 included CDK1, CDK2, CDK3, CDK5, CDK7 and CDK9; none of these were inhibited to less than 49 percent of control (POC) activity. The CDKs tested by KinomeScan for the effect of Compound 1 included CDK2, CDK3, CDK4, CDK5, CDK7, CDK8, CDK9 and CDK19; aside from CDK8 and CDK19, the strongest inhibited CDK was CDK7 (33% POC binding). […] We have also determined the binding constant (Kd) for SNX14, compound 1, compound 20, compound 26, compound 43 and compound 14 in kinase assays for CDK8 and CDK19 (Table 1).

T13 sequence (P48736 whole entry): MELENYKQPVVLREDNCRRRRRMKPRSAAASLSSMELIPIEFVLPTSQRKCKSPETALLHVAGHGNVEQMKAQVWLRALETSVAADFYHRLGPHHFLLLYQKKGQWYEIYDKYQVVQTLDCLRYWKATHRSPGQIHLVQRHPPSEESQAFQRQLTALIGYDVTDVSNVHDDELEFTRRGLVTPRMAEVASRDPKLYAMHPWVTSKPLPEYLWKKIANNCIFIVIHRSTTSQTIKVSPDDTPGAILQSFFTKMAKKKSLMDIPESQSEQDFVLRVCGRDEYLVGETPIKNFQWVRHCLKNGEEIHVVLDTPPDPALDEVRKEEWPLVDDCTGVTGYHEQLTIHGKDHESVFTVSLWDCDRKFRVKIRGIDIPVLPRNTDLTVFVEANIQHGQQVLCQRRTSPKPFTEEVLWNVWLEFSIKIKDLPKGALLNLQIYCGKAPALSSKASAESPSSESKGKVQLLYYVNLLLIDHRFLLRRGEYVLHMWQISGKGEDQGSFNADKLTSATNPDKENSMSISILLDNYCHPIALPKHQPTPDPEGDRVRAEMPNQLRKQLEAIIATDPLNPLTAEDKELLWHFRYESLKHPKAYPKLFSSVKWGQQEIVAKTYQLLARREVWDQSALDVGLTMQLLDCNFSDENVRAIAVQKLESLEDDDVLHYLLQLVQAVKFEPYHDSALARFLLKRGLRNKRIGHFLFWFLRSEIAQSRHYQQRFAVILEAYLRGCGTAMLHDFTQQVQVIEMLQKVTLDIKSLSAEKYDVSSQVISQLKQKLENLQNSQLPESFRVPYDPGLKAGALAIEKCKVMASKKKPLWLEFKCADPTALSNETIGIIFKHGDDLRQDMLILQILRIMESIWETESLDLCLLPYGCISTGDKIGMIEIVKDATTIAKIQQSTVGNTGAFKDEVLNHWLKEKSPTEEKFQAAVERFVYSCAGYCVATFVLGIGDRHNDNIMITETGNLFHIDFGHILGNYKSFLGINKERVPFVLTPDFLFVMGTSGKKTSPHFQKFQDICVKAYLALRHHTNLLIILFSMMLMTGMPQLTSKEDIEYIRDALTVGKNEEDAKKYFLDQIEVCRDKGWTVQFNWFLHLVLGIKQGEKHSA
T5 sequence (Q9UM73 19-1620): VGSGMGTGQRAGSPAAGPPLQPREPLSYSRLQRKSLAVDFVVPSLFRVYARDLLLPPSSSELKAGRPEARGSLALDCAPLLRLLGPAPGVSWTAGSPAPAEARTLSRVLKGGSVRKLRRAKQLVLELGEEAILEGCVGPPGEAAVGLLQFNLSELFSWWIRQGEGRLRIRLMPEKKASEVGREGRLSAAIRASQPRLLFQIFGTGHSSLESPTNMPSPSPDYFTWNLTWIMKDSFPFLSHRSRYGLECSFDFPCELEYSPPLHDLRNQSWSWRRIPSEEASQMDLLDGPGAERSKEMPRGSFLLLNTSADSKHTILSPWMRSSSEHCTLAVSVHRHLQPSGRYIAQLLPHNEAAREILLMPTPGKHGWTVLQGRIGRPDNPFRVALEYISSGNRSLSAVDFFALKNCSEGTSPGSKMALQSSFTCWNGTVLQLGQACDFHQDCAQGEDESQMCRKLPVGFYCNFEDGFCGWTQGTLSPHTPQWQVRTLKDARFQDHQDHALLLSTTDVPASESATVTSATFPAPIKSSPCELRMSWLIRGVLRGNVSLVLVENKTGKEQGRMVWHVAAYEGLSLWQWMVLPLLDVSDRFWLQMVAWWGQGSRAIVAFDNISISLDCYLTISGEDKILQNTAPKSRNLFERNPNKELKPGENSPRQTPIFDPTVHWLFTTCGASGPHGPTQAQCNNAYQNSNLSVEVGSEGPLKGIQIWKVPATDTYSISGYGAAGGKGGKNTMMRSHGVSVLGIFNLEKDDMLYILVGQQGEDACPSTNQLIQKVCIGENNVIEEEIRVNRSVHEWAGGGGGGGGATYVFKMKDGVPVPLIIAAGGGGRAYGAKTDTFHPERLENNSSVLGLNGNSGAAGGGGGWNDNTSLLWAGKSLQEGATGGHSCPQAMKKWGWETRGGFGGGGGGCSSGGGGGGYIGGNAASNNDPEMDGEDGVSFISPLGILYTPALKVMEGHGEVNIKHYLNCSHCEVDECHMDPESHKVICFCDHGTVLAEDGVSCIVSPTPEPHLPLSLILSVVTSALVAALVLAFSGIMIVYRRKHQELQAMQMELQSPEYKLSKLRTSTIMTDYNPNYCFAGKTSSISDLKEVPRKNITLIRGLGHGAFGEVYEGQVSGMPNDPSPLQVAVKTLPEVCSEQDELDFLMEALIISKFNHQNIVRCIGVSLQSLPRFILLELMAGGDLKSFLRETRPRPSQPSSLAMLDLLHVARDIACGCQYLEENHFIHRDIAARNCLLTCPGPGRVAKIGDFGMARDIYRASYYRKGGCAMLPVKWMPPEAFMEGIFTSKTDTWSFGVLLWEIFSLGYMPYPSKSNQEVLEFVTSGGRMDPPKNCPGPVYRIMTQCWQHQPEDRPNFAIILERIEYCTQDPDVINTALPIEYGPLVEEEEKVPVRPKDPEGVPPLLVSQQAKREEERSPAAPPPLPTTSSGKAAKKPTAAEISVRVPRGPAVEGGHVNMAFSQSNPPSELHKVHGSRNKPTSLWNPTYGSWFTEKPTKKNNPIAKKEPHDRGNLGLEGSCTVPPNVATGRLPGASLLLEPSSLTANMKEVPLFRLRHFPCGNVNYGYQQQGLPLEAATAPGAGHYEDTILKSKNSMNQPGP
T6 sequence (Q13464 whole entry): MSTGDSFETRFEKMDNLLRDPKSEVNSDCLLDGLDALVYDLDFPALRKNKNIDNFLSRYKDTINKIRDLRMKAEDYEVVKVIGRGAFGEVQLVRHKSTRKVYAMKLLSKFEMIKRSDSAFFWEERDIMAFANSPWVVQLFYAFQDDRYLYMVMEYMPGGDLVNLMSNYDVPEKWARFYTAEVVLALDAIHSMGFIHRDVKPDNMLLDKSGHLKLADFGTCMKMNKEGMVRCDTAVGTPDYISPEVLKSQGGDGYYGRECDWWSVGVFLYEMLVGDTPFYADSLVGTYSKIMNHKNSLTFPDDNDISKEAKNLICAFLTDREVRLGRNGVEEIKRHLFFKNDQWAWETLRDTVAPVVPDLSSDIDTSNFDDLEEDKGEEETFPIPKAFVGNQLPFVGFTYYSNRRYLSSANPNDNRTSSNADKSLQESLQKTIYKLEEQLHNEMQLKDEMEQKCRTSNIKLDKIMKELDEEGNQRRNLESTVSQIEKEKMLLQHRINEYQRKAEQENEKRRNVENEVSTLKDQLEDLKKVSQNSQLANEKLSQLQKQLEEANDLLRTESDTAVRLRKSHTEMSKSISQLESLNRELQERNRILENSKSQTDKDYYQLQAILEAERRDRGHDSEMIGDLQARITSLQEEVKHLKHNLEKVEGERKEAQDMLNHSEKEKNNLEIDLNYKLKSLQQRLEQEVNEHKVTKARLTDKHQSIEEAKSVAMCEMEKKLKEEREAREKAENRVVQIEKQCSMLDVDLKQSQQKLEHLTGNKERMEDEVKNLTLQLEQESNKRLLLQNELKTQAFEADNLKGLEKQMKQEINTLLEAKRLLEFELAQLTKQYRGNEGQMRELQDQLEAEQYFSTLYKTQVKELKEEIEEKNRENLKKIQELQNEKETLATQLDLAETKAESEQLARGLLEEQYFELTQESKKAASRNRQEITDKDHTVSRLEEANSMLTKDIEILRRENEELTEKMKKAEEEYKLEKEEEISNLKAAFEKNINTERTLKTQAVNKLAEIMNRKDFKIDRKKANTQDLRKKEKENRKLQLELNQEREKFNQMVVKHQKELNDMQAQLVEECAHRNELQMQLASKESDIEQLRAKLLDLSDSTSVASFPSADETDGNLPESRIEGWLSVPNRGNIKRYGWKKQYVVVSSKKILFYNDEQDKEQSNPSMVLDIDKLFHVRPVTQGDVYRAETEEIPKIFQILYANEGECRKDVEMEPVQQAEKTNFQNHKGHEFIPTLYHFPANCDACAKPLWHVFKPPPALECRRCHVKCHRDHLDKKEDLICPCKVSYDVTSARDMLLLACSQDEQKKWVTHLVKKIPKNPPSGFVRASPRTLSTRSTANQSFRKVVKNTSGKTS
T8 sequence (P29376 17-864): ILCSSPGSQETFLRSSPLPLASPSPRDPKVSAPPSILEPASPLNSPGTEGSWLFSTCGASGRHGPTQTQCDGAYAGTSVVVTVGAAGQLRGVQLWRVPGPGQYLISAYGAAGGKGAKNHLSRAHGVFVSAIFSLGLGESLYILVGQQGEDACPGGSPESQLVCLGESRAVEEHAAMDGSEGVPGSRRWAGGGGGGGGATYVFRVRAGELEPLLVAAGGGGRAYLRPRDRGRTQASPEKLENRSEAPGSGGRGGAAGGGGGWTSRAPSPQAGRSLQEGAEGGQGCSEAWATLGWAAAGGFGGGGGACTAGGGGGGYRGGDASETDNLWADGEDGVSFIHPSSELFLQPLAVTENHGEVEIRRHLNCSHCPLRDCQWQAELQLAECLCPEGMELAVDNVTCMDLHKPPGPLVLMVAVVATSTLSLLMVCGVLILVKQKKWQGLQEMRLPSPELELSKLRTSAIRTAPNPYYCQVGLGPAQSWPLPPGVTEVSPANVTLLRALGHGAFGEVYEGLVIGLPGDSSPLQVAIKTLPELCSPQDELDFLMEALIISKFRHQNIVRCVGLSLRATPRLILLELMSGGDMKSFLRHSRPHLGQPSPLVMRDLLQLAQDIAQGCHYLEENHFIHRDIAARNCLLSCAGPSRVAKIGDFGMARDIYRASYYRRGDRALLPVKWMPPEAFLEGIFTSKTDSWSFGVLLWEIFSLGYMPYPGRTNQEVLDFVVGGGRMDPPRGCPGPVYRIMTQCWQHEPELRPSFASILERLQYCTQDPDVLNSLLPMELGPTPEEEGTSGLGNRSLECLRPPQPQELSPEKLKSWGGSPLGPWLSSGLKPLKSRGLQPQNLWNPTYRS
Protocol for HIV-1: HIV replication was assayed in a cell-to-cell model of HIV-1 transmission using chronically infected H9IIIB as donor cells cocultivated with uninfected CEM-ss leukemia cell line as recipient cells. 1 ml of RPMI1640 medium (+10% Fetal Bovine Serum+Penicillin/Streptomycin+glutamine) containing 10^4 H9IIIB cells was mixed with 1 ml of the same medium containing 10^6 CEM-ss cells. […] The suspended cells were placed into a 25 cm^2 flask and incubated at 37° C., 5% CO2. On day 3, the cells were counted with a light microscope and an hemocytometer after trypan blue staining, which was used to determine the fraction of viable (trypan blue negative) cells. On day 5, the fraction of HIV-infected cells was determined using the K57-FITC conjugated monoclonal antibody to the HIV p24 antigen. For this measurement, the cells in each flask were mixed, 1 ml of cell culture was removed from each flask and placed into round bottom centrifuge tubes. The cells were separated from the medium by centrifugation at 1500 RPM for 5 minutes, the supernatants were aspirated and discarded and the cell pellets suspended in a fixative. […] The final pellets were suspended in 0.5 ml of PBS and the percentage of HIV p24-positive cells was determined by FACS analysis.

Regarding `N#Cc1ccc2ncnc(NCCc3ccccc3)c2c1` [compound 1], the “POC binding, ROCK2” value at ROCK2 stood at 89 POC. For the same compound, the “POC binding, MET” value at MET is given as 86 POC. Moreover, the “POC binding, PRKG2” value on PRKG2 was 85 POC. The “POC binding, RIOK2” value at RIOK2 worked out at 23 POC. The “POC binding, ALK” value at ALK turned out to be 78 POC. The “POC binding, ROCK1” value at ROCK1 came to 79 POC. The “POC binding, PKACa” value at PKACa was 82 POC. Moreover, the “POC binding, LTK” value at LTK turned out to be 100 POC. In addition, the “POC binding, ROS1” value on ROS1 was 63 POC. The “POC binding, PKACb” value at PKACb came out at 89 POC. The “POC binding, PIM2” value at PIM2 is listed as 52 POC. Besides, on JNK1, the “POC binding, JNK1” value came to 45 POC. For the same compound, the EC50 in the assay with HIV-1 came out at 0.58 µM. The “decrease of paracrine tumor-promoting (antiapoptotic) effect of irradiated/senescent fibroblasts” value in assay [1] is around 3 fold. For the same compound, the “POC ligand binding, PIK3CG” value at PIK3CG was 8 POC. In the assay on KB-3-1 carcinoma cells, the “IC50 KB-3-1 relative to IC50 for HUVEC cells” value was found to be 4.3 fold. Moreover, the IC50 with KB-3-1 carcinoma cells (read-out: IC50, KB-3-1 proliferation, 3-day MTT) was determined as 44.2 µM. Also, the “POC binding, CDK7” value on CDK7 amounted to 33 % POC.
Take `N#Cc1ccc2ncnc(NCc3ccc(Cl)cc3)c2c1` [compound 20]: on PIK3CG, the “POC ligand binding, PIK3CG” value is 40 POC.
Same read-out and setting: as for `COc1ccc2ncnc(NCCc3ccccc3)c2c1` [compound 44], the figure is 88 POC.
On the same count and under the same terms, as for `N#Cc1ccc2ncnc(NCCc3ccc4ccccc4c3)c2c1` [compound 26], the figure is 58 POC.
Regarding `CC(C)CNc1ncnc2ccc(C(F)(F)F)cc12` [compound 45], the “POC ligand binding, PIK3CG” value on PIK3CG was 82 POC.
As for `N#Cc1ccc2ncnc(NCc3ccc4ccccc4c3)c2c1` [compound 43], the “POC ligand binding, PIK3CG” value on PIK3CG was 35 POC.
Turning to `CCCNc1ncnc2ccc(N3CCOCC3)cc12` [compound 46], on PIK3CG, the “POC ligand binding, PIK3CG” value turned out to be 94 POC.
Still for that read-out and setting: the result for `N#Cc1ccc2ncnc(NCc3ccc4ccccc4c3)c2c1` [compound 14] reads 35 POC.
